# Test results: patent US9636324B2, “Use of 15-benzylidence-14-deoxy-11, 12 -dehyroandrographolide derivative in manufacture of medicaments for protecting liver and anti-hepatitis C virus” (Zhengzhou University, priority 2012, dated 2017)
# Tests used:
# [1] = test system: mice with carbon tetrachloride induced liver damage; assay: Carbon tetrachloride induced chemical liver damage model in mice; assay type: in vivo, Kunming mice; details: for ALT activity in serum vs model group / AST activity in serum vs model group: dosage groups not distinguished (0.66 and 0.88 mmol/kg); for ALT activity in serum vs model group / AST activity in serum vs model group / MDA level in liver homogenate vs model group / PGE2 level in liver homogenate vs model group: P<0.01; for MDA level in liver homogenate vs model group / PGE2 level in liver homogenate vs model group: dosage groups not distinguished; for magnitude of decrease in ALT activity compared to AD group / magnitude of decrease in AST activity compared to AD group / PGE2 content compared to AD group / ability to reduce lipid peroxide level in liver homogenate compared to AD group: P<0.05; for protective effect against liver damage induced by carbon tetrachloride (summary): mice, intragastric, 3 days
# Procedure: Kunming mice of clean grade (male, weight 20±2 g), after adaptively fed for 3 days, are randomly divided into normal group, model group, bifendate positive control group (200 mg/kg), AD group (0.88 mmol/kg), low dosage group (0.66 mmol/kg) and high dosage group (0.88 mmol/kg) of compound A, B, C and D, with 8 mice in each group. Positive group and each test group are intragastrically given with respective suspension prepared with 0.5% CMC-Na, and normal group and model group are given with 0.5% CMC-Na. The drugs are given for 3 days, and 1 h after the last administration, all mice except those in the normal group are intraperitoneally injected with a single dose of 0.3% carbon tetrachloride in peanut oil (0.1 mL/10 g). After 16 h, the eyeball of the mice in each group is enucleated to collect blood, which is centrifuged at 3000 rpm for 15 min to separate serum. ALT and AST activities are tested respectively (Nanjing Jiancheng Bioengineering Institute). The left lobe of liver is taken to prepare 10% homogenate using physiological saline, MDA (Nanjing Jiancheng Bioengineering Institute) and PGE2 contents are determined. Experimental data are expressed as average±standard deviation (X±s), analyzed with SPSS 11.5 statistic software, with P<0.05 meaning there is a significant difference. Other agents, drugs and experimental methods are the same as in EXAMPLE 1. In experimental investigation of both models, the following grouping method is used: Kunming mice of clean grade (male, weight 20±2 g) are randomly divided into normal group, model group, bifendate group (200 mg/kg), AD group (0.88 mmol/kg), low dosage group (0.66 mmol/kg) and high dosage group (0.88 mmol/kg) of compound E, with 8 mice in each group. Other agents, drugs and experimental methods are the same as in EXAMPLE 1 and in EXAMPLE 4, respectively.
# [2] = test system: mice with ConA induced liver damage; assay: ConA induced immunological liver damage model in mice; assay type: in vivo, Kunming mice; details: for enzyme (ALT, AST) lowering effect compared to AD group: high dosage 0.88 mmol/kg vs AD 0.88 mmol/kg; for ability against liver lipid peroxidation compared with AD group: P<0.01 (B, C), P<0.05 (D); for protective effect against liver damage induced by ConA (summary): mice, intragastric, 3 days
# Procedure: Kunming mice of clean grade (male, weight 20±2 g, supplied by the Laboratory Animal Center, Henan Province) are randomly divided into groups with 6 mice in each group. Bifendate (Xinchang Pharmaceutical Factory of Zhejiang Pharmaceutical Co., Ltd, 200 mg/kg) is used as positive control, andrographolide (AD) is provided by Furen Pharmaceutical Group Co., Ltd, and the test compounds are synthesized by the inventors with purities higher than 99.0%. Normal control group and model group are intragastrically given 0.5% sodium carboxymethylcellulose (CMC-Na), and test groups are given 0.5% CMC-Na suspensions with AD (0.88 mmol/kg), and low dosage (0.66 mmol/kg) and high dosage (0.88 mmol/kg) of compound A, B and C, respectively. The drugs are given for 3 days. One hour after the last administration, all mice except those in the normal control group are injected with a single dose of ConA (20 mg/kg) through the caudal vein. After 8 h, the eyeball is enucleated to collect blood, which is centrifuged at 3000 rpm for 15 min to separate serum. ALT and AST are tested according to the kit specification, respectively (Nanjing Jiancheng Bioengineering Institute). The left lobe of liver is taken to prepare 10% homogenate using physiological saline, MDA is determined according to the kit specification (Nanjing Jiancheng Bioengineering Institute). To 50 μL liver homogenate is added 2 mL of 0.5 mol/L KOH-methanol solution and kept at 50° C. water bath to isomerize for 20 minutes, then absorbance (A value) is measured at 278 nm, using the A value per mL of homogenate to represent the PGE2 content. Experimental data are expressed as average±standard deviation (X±s), analyzed with SPSS 11.5 statistic software, with P<0.05 meaning significant difference.
# Kunming mice of clean grade (male, weight 20±2 g) are randomly divided into normal group, model group, bifendate (Zhejiang Wanbang Pharmaceutical Co., Ltd) positive control group (200 mg/kg), AD group (0.88 mmol/kg), low dosage group (0.66 mmol/kg) and high dosage (0.88 mmol/kg) group of compound D. ALT, AST, and MDA assay kits are purchased from Nanjing Jiancheng Bioengineering Institute. Other agents, drugs and experimental methods are the same as in EXAMPLE 1.
# In experimental investigation of both models, the following grouping method is used: Kunming mice of clean grade (male, weight 20±2 g) are randomly divided into normal group, model group, bifendate group (200 mg/kg), AD group (0.88 mmol/kg), low dosage group (0.66 mmol/kg) and high dosage group (0.88 mmol/kg) of compound E, with 8 mice in each group. Other agents, drugs and experimental methods are the same as in EXAMPLE 1 and in EXAMPLE 4, respectively.
# [3] = test system: bovine viral diarrhea virus (BVDV-AV69); assay: CPE observation of effects on cytopathy caused by BVDV in MDBK cells; details: MDBK cells, BVDV-AV69; TC50 from MTT, IC50 from CPE
# Procedure: Pharmaceutical effects of drugs of the invention against cytopathy caused by inoculation of BVDV virus are investigated using MDBK (NBL-1) cells (purchased from Chinese Academy of Science's Shanghai Center for Type Culture Collection) and bovine viral diarrhea virus (BVDV-AV69) (purchased from China Institute of Veterinary Drugs Control). Ribavirin (R; Henan RunHong Pharmaceutical Co., Ltd; batch number: E0909604) is used as positive drug control. MDBK cells are prepared as a suspension (1×10^5/mL) in RPMI1640 culture medium which contains 10% in volume fetal bovine serum (Zhejiang Tianhang Biotechnology Co., Ltd; batch number: 100524), 100 μg/mL streptomycin (Shenzheng Huayao Nanfang Pharmaceutical Co., Ltd; batch number: N09081), 100 U/mL penicillin (North China Pharmaceutical Co., Ltd; batch number: E0909604), and are seeded in 96 well plates (Costar, US) at 200 μL/well, placed in an incubator (Binder, Germany) at 37° C. with 5% CO2 to culture the cell. In 24 h when cells grow into a single layer, virus solution of 100 TCID50 (TCID50=10^−2.5) is added and incubated for 1.5 h. Maintenance medium with the drug is added at 200 μL/well after 3×PBS washes.
# After digestion of MDBK cells with trypsin, cells with a concentration of 1×10^5/mL are seeded into 96 well plates at 200 μL/well, placed in an incubator at 37° C. with 5% CO2 for 24 h. After growing into a single layer, cells are attacked using 100 TCID50 (TCID50=10^−2.5) virus and incubated for 1.5 h. The virus-containing maintenance medium is discarded, and cells are washed with PBS, followed by addition of drug-containing maintenance medium with different concentrations, and incubation in 5% CO2 at 37° C. Normal cell control, virus control, drug treatment and ribavirin treatment groups are set. The cytopathy developing status is recorded everyday by observing under an inverted microscope.
# [4] = test system: mice with ethanol induced liver damage; assay: Ethanol induced liver damage model in mice; assay type: in vivo, Kunming mice
# Procedure: Kunming mice of clean grade (male, weight 20±2 g), after adaptively fed for 3 days, are randomly divided into normal group, model group, bifendate positive control group (200 mg/kg), AD group (0.88 mmol/kg), low (0.44 mmol/kg), median (0.66 mmol/kg) and high (0.88 mmol/kg) dosage groups of compound A, and median (0.66 mmol/kg) and high (0.88 mmol/kg) dosage groups of compound B, with 8 mice in each group. Positive group and each test group are intragastrically given with respective suspension prepared with 0.5% CMC-Na, and normal group and model group are given with 0.5% CMC-Na. The drugs are given for 3 days, and 1 h after the last administration, all mice except those in the normal group are intragastrically administrated with a single dose of 50% EtOH ([…]). After 16 h, the eyeball of the mice in each group is enucleated to collect blood, which is centrifuged at 3000 rpm for 15 min to separate serum. ALT and AST activities are tested respectively (Nanjing Jiancheng Bioengineering Institute). The left lobe of liver is taken to prepare 10% homogenate using physiological saline, MDA (Nanjing Jiancheng Bioengineering Institute) content is determined. Experimental data are expressed as average±standard deviation (X±s), analyzed with SPSS 11.5 statistic software, with P<0.05 meaning there is a significant difference. Other agents, drugs and experimental methods are the same as in EXAMPLE 1.
# [5] = high dosage 0.88 mmol/kg vs AD 0.88 mmol/kg
# [6] = low dosage 0.66 mmol/kg vs AD 0.88 mmol/kg
# [7] = high dosage 0.88 mmol/kg, P<0.01
# [8] = dosage groups not distinguished, P<0.01
SMILES,ALT activity in serum vs model group [1],AST activity in serum vs model group [1],MDA level in liver homogenate vs model group [1],PGE2 level in liver homogenate vs model group [1],"magnitude of decrease in ALT activity compared to AD group [1, 5]","magnitude of decrease in AST activity compared to AD group [1, 5]","magnitude of decrease in ALT activity compared to AD group [1, 6]","magnitude of decrease in AST activity compared to AD group [1, 6]",protective effect against liver damage induced by carbon tetrachloride (summary) [1],"enzyme (ALT, AST) lowering effect compared to AD group ([2]; P<0.05)","MDA content in liver homogenate vs model group [2, 7]","PGE2 content in liver homogenate vs model group [2, 7]",ability against liver lipid peroxidation compared with AD group ([2]; high dosage 0.88 mmol/kg),protective effect against liver damage induced by ConA (summary) [2],"TI value (therapy index, TC50/IC50) [3]",also measured
C=C1CCC2C(C)(CO)C(O)CCC2(C)C1C=CC1=CC(=Cc2cccc(Br)c2)OC1=O (stereo not shown) [C],notably suppress the increase,notably suppress the increase,effectively reduce,effectively reduce,significantly better,significantly better,significantly better,significantly better,protective effect,better enzyme lowering effect,more obvious effect,notably reduce PGE2 content,stronger resistant ability against liver lipid peroxidation,notably protective effect,,PGE2 content compared to AD group ([1]; high dosage 0.88 mmol/kg): notably lower; ability to reduce lipid peroxide level in liver homogenate compared to AD group ([1]; high dosage 0.88 mmol/kg): stronger ability to reduce the lipid peroxide level
"C=C1CC[C@@H]2[C@](C)(CO)[C@H](O)CC[C@@]2(C)[C@@H]1C/C=C1/C(=O)OC[C@H]1O [AD, andrographolide]",,,,,,,,,Obvious Protective Effect,,,,,Obvious Protective Effect,14.4,"MDA content in liver homogenate vs model group ([2]; AD 0.88 mmol/kg, compounds at different dosages, P<0.05): can reduce the MDA content; liver histopathologic section (HE staining) ([2]; HE stain, 200x, FIG. 5): liver cells are slightly swelled and loosed, a portion of liver cells show spotted necrosis and degeneration, no focal necrosis involving massive liver cells is observed"
"NC(=O)c1ncn([C@@H]2O[C@H](CO)[C@@H](O)[C@H]2O)n1 [Ribavirin(R), Ribavirin, reference compound]",,,,,,,,,,,,,,,4,
C=C1CCC2C(C)(CO)C(O)CCC2(C)C1C=CC1=CC(=Cc2ccccc2)OC1=O (stereo not shown) [B],notably suppress the increase,notably suppress the increase,effectively reduce,effectively reduce,significantly better,significantly better,significantly better,significantly better,protective effect,better enzyme lowering effect,more obvious effect,notably reduce PGE2 content,stronger resistant ability against liver lipid peroxidation,notably protective effect,,"PGE2 content compared to AD group ([1]; low dosage 0.66 mmol/kg): notably lower; ability to reduce lipid peroxide level in liver homogenate compared to AD group ([1]; low dosage 0.66 mmol/kg): stronger ability to reduce the lipid peroxide level; ALT activity in serum vs model group [4, 8]: effectively suppress; AST activity in serum vs model group [4, 8]: effectively suppress; MDA content in liver homogenate vs model group [4, 8]: effectively reduce the MDA content; ALT activity decreasing magnitude compared with AD group ([4]; high dosage 0.88 mmol/kg, P<0.01 (A), P<0.05 (B)): notably larger; protective effect against liver damage induced by ethanol (summary) ([4]; mice, intragastric, 3 days): protective effect"
